Legend:
[1] = target: xanthine oxidase (Homo sapiens, UniProt P47989); experiment: Xanthine oxidase inhibitory activity; format: biochemical; details: for inhibition at 10 µg/mL: 10 μg/mL; for inhibition at 20 µg/mL: 20 μg/mL; for inhibition at 40 µg/mL: 40 μg/mL; for inhibition at 80 µg/mL: 80 μg/mL; for inhibition at 160 µg/mL: 160 μg/mL; for inhibition at 320 µg/mL: 320 μg/mL; for inhibition at 640 µg/mL: 640 μg/mL
Experimental: 0.2 ml of the substrate solution in which 2 mM xanthine was dissolved was added to 0.1 ml of a sample solution and 0.6 ml of 0.1 M potassium phosphate buffer at pH 7.5, and 0.1 ml of 0.2 unit/ml xanthine oxidase was added thereto, followed by reaction at 37° C. for 5 minutes. Then, 1 ml of 1N HCl was added to terminate the reaction, and then the absorbance of the uric acid produced in the reaction solution was measured at 292 nm. The inhibitory activity of xanthine oxidase was shown by the absorbance reduction rate of the addition group and the non-addition group of the sample solution.
Xanthine oxidase acts as a rate-limiting enzyme in the terminal oxidation of all purines and is an enzyme that acts as a source of oxidizing agents such as superoxide radicals and hydrogen peroxide. The superoxide anion inhibition by xanthine/xanthine oxidase enzymes is shown by superoxide anion scavenging activity and xanthine oxidase inhibition and has biologically important meaning through inhibition of gout and formation of free radicals. The superoxide radical scavenging effects of 10, 20, 40, 80, 160, 320, and 640 μg mL-1 of each fraction extract of the Fomes fomentarius were compared using butylated hydroxy anisole (BHA) as a positive control group.
The superoxide radical scavenging effects of 10, 20, 40, 80, 160, 320, and 640 μg mL-1 of the Acer tegmentosum maxim extract were compared using butylated hydroxy anisole (BHA) as a positive control group.
The superoxide radical scavenging effects of 10, 20, 40, 80, 160, 320, and 640 μg mL-1 of the berchemia berchemiaefolia extract were compared using butylated hydroxy anisole (BHA) as a positive control group.
The superoxide radical scavenging effects of 10, 20, 40, 80, 160, 320, and 640 μg mL-1 of the Lithospermum erythrorhizon extract were compared using butylated hydroxy anisole (BHA) as a positive control group.

[2] = test system: NF-κB; experiment: Western blotting of LPS-induced NF-κB phosphorylation in BV2 cells; format: cell-based, mouse
Experimental: BV2 cells were placed in a 6-well plate at 7.5×10^5 cells/well, and stabilized at 37° C. and 5.0% CO2 for 12 hours. After that, LPS and the Fomes fomentarius CHCl3 fractions, the nonadecanone (2-Nonadecanone) or the docosenol (cis-13-Docosenol) compounds were placed according to groups and were incubated for 1 hour. The cell culture was collected and used for cytokine analysis. All the cell culture was removed, and then 1 ml of dPBS was dispensed to each well to wash and remove the wells. 200 μl of the lysis buffer was dispensed per well and the cells attached to the bottom of the well were removed with a cell scriper, and then were slowly mixed and reacted for […] on ice at 4° C. The cells were removed with a scriper again and all the lysis solution was collected. The collected lysis solution was centrifuged at 15,000 rpm for 15 minutes at 4° C. so that only the supernatant was collected. In order to plot standard curves for protein quantification, a standard BSA solution ([…]) and a dilution were prepared in which bradford solution and D.W. were diluted with 4:1. After the bradford dilution was dispensed in each 200 μl to 96-well, the standard BSA solution and the cell lysis supernatant were dispersed in a volume of 10 μl per well, and then they were mixed by pipetting. After 10 minutes, the protein was quantitated by measuring the absorbance at 595 nm in a reader. The subsequent procedures were carried out in the same manner as in the quantitative analysis of the protein of Example 3-3.

xanthine oxidase, sequence (P47989 whole entry, species assumed): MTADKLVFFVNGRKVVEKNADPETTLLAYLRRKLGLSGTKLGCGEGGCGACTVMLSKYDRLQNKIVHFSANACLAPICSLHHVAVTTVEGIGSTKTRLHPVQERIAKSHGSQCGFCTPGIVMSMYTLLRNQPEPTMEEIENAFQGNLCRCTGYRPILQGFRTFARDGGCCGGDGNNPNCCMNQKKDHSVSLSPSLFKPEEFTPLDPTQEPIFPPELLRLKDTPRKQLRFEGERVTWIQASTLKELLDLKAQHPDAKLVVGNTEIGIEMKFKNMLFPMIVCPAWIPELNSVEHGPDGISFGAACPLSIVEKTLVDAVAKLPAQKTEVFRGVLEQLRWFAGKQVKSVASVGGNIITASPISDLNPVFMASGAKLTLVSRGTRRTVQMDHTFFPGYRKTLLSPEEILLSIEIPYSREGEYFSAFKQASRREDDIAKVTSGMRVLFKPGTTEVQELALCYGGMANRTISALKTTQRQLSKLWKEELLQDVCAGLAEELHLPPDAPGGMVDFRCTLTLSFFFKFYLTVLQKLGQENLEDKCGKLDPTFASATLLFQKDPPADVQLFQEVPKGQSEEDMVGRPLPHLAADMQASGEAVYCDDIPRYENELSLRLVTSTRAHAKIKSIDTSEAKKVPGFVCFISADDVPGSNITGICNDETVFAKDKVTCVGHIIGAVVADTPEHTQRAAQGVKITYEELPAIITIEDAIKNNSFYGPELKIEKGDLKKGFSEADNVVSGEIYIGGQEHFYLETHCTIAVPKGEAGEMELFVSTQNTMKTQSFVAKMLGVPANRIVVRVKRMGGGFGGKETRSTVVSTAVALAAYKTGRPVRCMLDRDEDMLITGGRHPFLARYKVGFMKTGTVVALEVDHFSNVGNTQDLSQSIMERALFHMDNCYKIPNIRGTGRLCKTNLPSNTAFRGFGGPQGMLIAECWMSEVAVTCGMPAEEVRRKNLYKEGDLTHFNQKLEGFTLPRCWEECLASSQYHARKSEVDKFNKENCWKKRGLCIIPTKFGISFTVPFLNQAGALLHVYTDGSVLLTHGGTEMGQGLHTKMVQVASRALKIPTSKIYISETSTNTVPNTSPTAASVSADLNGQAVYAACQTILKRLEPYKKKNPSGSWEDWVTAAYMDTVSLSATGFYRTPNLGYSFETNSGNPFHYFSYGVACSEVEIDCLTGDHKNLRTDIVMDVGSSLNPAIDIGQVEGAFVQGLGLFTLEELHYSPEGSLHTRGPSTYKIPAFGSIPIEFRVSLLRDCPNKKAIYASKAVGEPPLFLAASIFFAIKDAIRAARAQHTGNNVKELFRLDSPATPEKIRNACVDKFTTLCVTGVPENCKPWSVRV

| Compound | inhibition at 10 µg/mL [1] [%] | inhibition at 20 µg/mL [1] [%] | inhibition at 40 µg/mL [1] [%] | inhibition at 80 µg/mL [1] [%] | inhibition at 160 µg/mL [1] [%] | inhibition at 320 µg/mL [1] [%] | inhibition at 640 µg/mL [1] [%] | p-NF-κB/NF-κB ratio (%), expression ratio (vehicle 100%) ([2]; 5 μg/ml) | p-NF-κB/NF-κB ratio (%), expression ratio (vehicle 100%) ([2]; 20 μg/ml) | p-NF-κB/NF-κB ratio (%), expression ratio (vehicle 100%) ([2]; 50 μg/ml) | p-NF-κB/NF-κB ratio (%), expression ratio (vehicle 100%) ([2]; 100 μg/ml) |
| --- | --- | --- | --- | --- | --- | --- | --- | --- | --- | --- | --- |
| CCCCCCCC/C=C\CCCCCCCCCCCCO [docosenol, cis-13-Docosenol] | 0.9 ± 0.3 | 2.5 ± 0.5 | 3.6 ± 0.7 | 5.8 ± 1.1 | 7.7 ± 0.9 | 9.6 ± 0.8 | 11.8 ± 1.4 | about 41% | about 28% | about 8% |  |
| CCCCCCCCCCCCCCCCCC(C)=O [nonadecanone, 2-Nonadecanone] | 4.1 ± 0.5 | 6.9 ± 0.8 | 12.3 ± 1.1 | 20.5 ± 0.9 | 21.6 ± 0.7 | 24.6 ± 1.1 | 30.8 ± 1.4 | about 35% | about 21% | about 15% | about 12% |

— patent US11338004B2, “Composition for preventing or treating cranial nerve disease comprising fomes fomentarius extract, fraction thereof, or compound isolated therefrom as active ingredient” (priority 2015, dated 2022)
